Assay results taken from EP4775036A2, “SYNERGISTIC FORMULATIONS FOR CONTROL AND REPELLENCY OF BITING ARTHROPODS” (Bedoukian Research, Inc., priority 2020, dated 2022).
Several values for one entry are separate records, joined by “and”; a condition that tells them apart may be missing. Identical values can stand only once.

Assays:
Aedes aegypti mosquitoes = assay: Arm in cage testing (Modified WHO - Nigel Hill protocol), dose response curves on human subjects, LDP line analysis; type: in vivo; conditions: for Index: ED50 comparison of LDP lines, lowest ED50 = 100; for RR: ED50 relative to the line with the lowest ED50
Protocol: A Modified WHO - Nigel Hill protocol was used for Dose Response curve generation. Three concurrent repetitions were conducted with 4 subjects (2 male, 2 female). Approximately 60 non blood-fed, female Aedes aegypti mosquitoes were placed in a 12"X12"X12" (28316.85 cm^3) plexi and screen cage.
Arms were inserted into the first cage for 30 seconds, with number of landings (with intent to bite) recorded at the end of the time interval. The same procedure was used for the 2nd and 3rd cage in succession. Control arm was inserted first, followed by the opposite arm treated with ethanol only (as a treatment control). The 'treatment arm' is then treated with dose 1 and inserted, then dose 2, dose 3, and so on. After complete protection was achieved, control arm was reinserted to verify continued activity.
Percent repellency was calculated by utilizing the formula [{(C-T)/C}*100]. Where C = the number of mosquitoes landing with intent to bite on the ethanol only treated arm, and T = the number of mosquitoes landing with intent to bite on the 'repellent' treated arm. LDP line® software (Bakr, E 2007) was used to determine ED50 (effective dose to repel 50%) and compare materials.
Following the Definition of Synergy (the interaction or cooperation of two or more organizations, substances, or other agents to produce a combined effect greater than the sum of their separate effects), an 'additive measure' was used to determine synergy in the laboratory testing, as well as in the human testing. […] Significance was determined by the use of 95% confidence intervals.
For human testing, the LDP Line software was used to determine "additive repellency" differences.

Aedes aegypti = assay: Laboratory screening, modified K & D chamber (Gupta Box), treated blood-filled membrane wells; type: in vivo; conditions: adjusted, relative to control
Protocol: A modified K & D chamber or "Gupta Box" was used to screen 4 compounds plus an untreated control, simultaneously. Five replicates of 250 adult female mosquitoes each were placed in clear plastic cages (Gupta boxes) with access to five warmed, blood-filled, membrane-covered wells. The mosquitoes used were Aedes aegypti. Membranes were treated with repellent dilutions or diluent only. Five replicates were tested, rotating positions within the chamber. Each replicate used a fresh batch of mosquitoes, blood and treated membranes. The number of mosquitoes probing each well was recorded at two minute intervals for 20 minutes. The total numbers of probes on each well were tallied at the end of the observation period and the average percentage repellency relative to the control was calculated for each formulation. To compare formulations from different tests, the control probes were adjusted to 100 for each test and the formula then applied to each formulation to adjust accordingly. For laboratory testing, additive repellency was determined by adding the adjusted percent repellency for each dose used in the combination treatment. This "Expected additive repellency" was then compared to the "actual repellency" seen when the combination was tested in the Gupta box.

[1] = DEET Combinations, calculations based on DEET dose
[2] = human arm in cage, DEET dose, DEET alone or in the combination (calculations based on DEET dosage)
[3] = 0.5% of the compound alone on membrane
[4] = 1% of the compound alone on membrane
[5] = human arm in cage, compound alone
[6] = PMD Combinations, calculations based on PMD dose
[7] = human arm in cage, PMD dose, PMD alone or in the combination (calculations based on PMD dosage)

CCN(CC)C(=O)c1cccc(C)c1 [DEET, N,N-Diethyl-m-toluamide]
ED90 (%AI) (Aedes aegypti mosquitoes; [1]): 1.443 %AI | Index (Aedes aegypti mosquitoes; [1]): 10.32 | RR (Aedes aegypti mosquitoes; [1]): 9.69 | % Repelled (Aedes aegypti mosquitoes; DEET alone at Dose 0.0351 % Active (its ED25)): 25% | ED25, Dose (% DEET) (Aedes aegypti mosquitoes; [2]): 0.035 % DEET and 0.0351 % DEET | ED50, Dose (% DEET) (Aedes aegypti mosquitoes; [2]): 0.1263 % DEET and 0.126 % DEET | ED75, Dose (% DEET) (Aedes aegypti mosquitoes; [2]): 0.4552 % DEET | ED90, Dose (% DEET) (Aedes aegypti mosquitoes; [2]): 1.4431 % DEET | ED95, Dose (% DEET) (Aedes aegypti mosquitoes; [2]): 2.8783 % DEET | percent repellency (Aedes aegypti; [3]): 29.55% | percent repellency (Aedes aegypti; [4]): 52.9%

CCCCCCCCC1CCC(=O)O1 (centres unmarked) [Gamma Dodecalactone, gamma-dodecalactone]
% Repelled (Aedes aegypti mosquitoes; Gamma Dodecalactone alone at Dose 0.4177 % Active (its ED25)): 25% | ED25, Dose (% γ Dodecalactone) (Aedes aegypti mosquitoes; [5]): 0.4177 % γ Dodecalactone | ED50, Dose (% γ Dodecalactone) (Aedes aegypti mosquitoes; [5]): 1.8022 % γ Dodecalactone | ED75, Dose (% γ Dodecalactone) (Aedes aegypti mosquitoes; [5]): 7.7764 % γ Dodecalactone | ED90, Dose (% γ Dodecalactone) (Aedes aegypti mosquitoes; [5]): 28.994 % γ Dodecalactone | ED95, Dose (% γ Dodecalactone) (Aedes aegypti mosquitoes; [5]): 63.726 % γ Dodecalactone

CC(O)C(=O)O (centres unmarked) [Lactic Acid, Lactic acid]
% Repelled (Aedes aegypti mosquitoes; Lactic Acid alone at Dose 2.7938 % Active (its ED25)): 25% | ED25, Dose (% Lactic Acid) (Aedes aegypti mosquitoes; [5]): 2.794 % Lactic Acid | ED50, Dose (% Lactic Acid) (Aedes aegypti mosquitoes; [5]): 6.143 % Lactic Acid | ED75, Dose (% Lactic Acid) (Aedes aegypti mosquitoes; [5]): 13.51 % Lactic Acid | ED90, Dose (% Lactic Acid) (Aedes aegypti mosquitoes; [5]): 27.45 % Lactic Acid | ED95, Dose (% Lactic Acid) (Aedes aegypti mosquitoes; [5]): 41.96 % Lactic Acid

CC(=O)CCC=C(C)CCC=C(C)C [Geranyl Acetone, 6,10-dimethyl-5,9-undecadien-2-one]
% Repelled (Aedes aegypti mosquitoes; Geranyl Acetone alone at Dose 0.736 % Active (its ED25)): 25% | ED25, Dose (% Geranyl Acetone) (Aedes aegypti mosquitoes; [5]): 0.736 % Geranyl Acetone | ED50, Dose (% Geranyl Acetone) (Aedes aegypti mosquitoes; [5]): 2.831 % Geranyl Acetone | ED75, Dose (% Geranyl Acetone) (Aedes aegypti mosquitoes; [5]): 10.889 % Geranyl Acetone | ED90, Dose (% Geranyl Acetone) (Aedes aegypti mosquitoes; [5]): 36.608 % Geranyl Acetone | ED95, Dose (% Geranyl Acetone) (Aedes aegypti mosquitoes; [5]): 75.631 % Geranyl Acetone | percent repellency (Aedes aegypti; [3]): 26.7% and 26.69%

CC1CCC(C(C)(C)O)C(O)C1 (centres unmarked) [PMD, para-menthane-3,8-diol]
ED90 (%AI) (Aedes aegypti mosquitoes; [6]): 3.846 %AI | Index (Aedes aegypti mosquitoes; [6]): 4.36 | RR (Aedes aegypti mosquitoes; [6]): 22.94 | % Repelled (Aedes aegypti mosquitoes; PMD alone at Dose 0.1275 % Active (its ED25)): 25% | ED25, Dose (% PMD) (Aedes aegypti mosquitoes; [7]): 0.128 % PMD and 0.1275 % PMD | ED50, Dose (% PMD) (Aedes aegypti mosquitoes; [7]): 0.4128 % PMD and 0.413 % PMD | ED75, Dose (% PMD) (Aedes aegypti mosquitoes; [7]): 1.3362 % PMD | ED90, Dose (% PMD) (Aedes aegypti mosquitoes; [7]): 3.8464 % PMD | ED95, Dose (% PMD) (Aedes aegypti mosquitoes; [7]): 7.2415 % PMD | percent repellency (Aedes aegypti; [4]): 26.35% and 26.4% | percent repellency (Aedes aegypti; 1.5% of the compound alone on membrane): 34.6%
